In patent publication US8877161B2 (priority 2011, dated 2014):
Like-named read-outs stand apart in the source and are kept apart here. Marks after values point to notes of the source that are not given here. Where a SMILES comes first, the peptide text is derived from it.

Columns and labels:
Type in all cases: binding
[1] = target: cholera toxin B subunit (CTB); ligand GM1 (Vibrio cholerae serotype O1, UniProt P01556)
[2] = target: cholera toxin B subunit (CTB); ligand fucosyl-GM1 (F-GM1) (Vibrio cholerae serotype O1, UniProt P01556)
[3] = target: cholera toxin B subunit (CTB); ligand LOSGM1 (Vibrio cholerae serotype O1, UniProt P01556)
[4] = target: cholera toxin B subunit (CTB); ligand GD1b (Vibrio cholerae serotype O1, UniProt P01556)
[5] = target: cholera toxin B subunit (CTB); ligand Lipid AP (Vibrio cholerae serotype O1, UniProt P01556)
[6] = system: rabbit anti-GM1 antibodies (AbGM1); details: for IC50: AbGM1-1 lot # 431A; for Inhibition percent at IC50AbGM1-1: GM1/AbGM1-1 / Inhibition percent at IC50 AbGM1-1: AbGM1-3 / Inhibition percent at IC50 AbGM1-1: AbeGM1-4 / Inhibition percent at IC50 AbGM1-1: AbGM1-5 / Inhibition percent at IC50 AbGM1-1: AbGM1-1 / Inhibition percent at IC50 AbGM1-1: AbGM1-2: peptide at its IC50 AbGM1-1; for Inhibition percent at IC50 AbGM1-1: AbGM1-3: antibody lot # 101J; for Inhibition percent at IC50 AbGM1-1: AbeGM1-4: antibody lot # 104H; for Inhibition percent at IC50 AbGM1-1: AbGM1-1: antibody lot # 431A, means of 4 values
[7] = system: AbGM2 (GM2/AbGM2); details: lot # D710-2; for Inhibition percent at IC50AbGM1-1: GM2/AbGM2: peptide at its IC50 AbGM1-1
[8] = system: AbGM4 (GM4/AbGM4); details: lot # GMR6; for Inhibition percent at IC50AbGM1-1: GM4/AbGM4: peptide at its IC50 AbGM1-1
[9] = system: AbGD1a (GD1a/AbGD1a); details: lot # 109H; for Inhibition percent at IC50AbGM1-1: GD1a/AbGD1a: peptide at its IC50 AbGM1-1
[10] = system: AbGD1b (GD1b/AbGD1b); details: lot # D710-6; for Inhibition percent at IC50AbGM1-1: GD1b/AbGD1b: peptide at its IC50 AbGM1-1
[11] = system: AbGD3 (GD3/AbGD3); details: peptide at its IC50 AbGM1-1; lot # R24
[12] = system: AbF-GM1 (F-GM1/AbF-GM1); details: lot # G351; for Inhibition percent at IC50AbGM1-1: F-GM1/AbF-GM1: peptide at its IC50 AbGM1-1
[13] = system: AbSGPG (SGPG/AbSGPG); details: lot # D710-5; for Inhibition percent at IC50AbGM1-1: SGPG/AbSGPG: peptide at its IC50 AbGM1-1
[14] = antibody lot # 105T, dilution 1:500
[15] = antibody lot # 431B, dilution 1:500
[16] = treatment with 500 pmol/mL of PGM1-2

cholera toxin B subunit (CTB); ligand fucosyl-GM1 (F-GM1), sequence (P01556 22-124 limits assumed): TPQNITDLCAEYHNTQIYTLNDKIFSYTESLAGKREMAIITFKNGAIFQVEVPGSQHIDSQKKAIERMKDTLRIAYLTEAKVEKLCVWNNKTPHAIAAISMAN
cholera toxin B subunit (CTB); ligand LOSGM1, sequence (P01556 22-124 limits assumed): as above
cholera toxin B subunit (CTB); ligand Lipid AP, sequence (P01556 22-124 limits assumed): as above
cholera toxin B subunit (CTB); ligand GD1b, sequence (P01556 22-124 limits assumed): as above
cholera toxin B subunit (CTB); ligand GM1, sequence (P01556 22-124 limits assumed): as above

Row | SMILES | IC50 GM1 [1] [nM] | Inhibition percent at IC50 GM1: F-GM1 [2] [%] | Inhibition percent at IC50 GM1: LOSGM1 [3] [%] | Inhibition percent at IC50 GM1: GD1b [4] [%] | Inhibition percent at IC50 GM1: Lipid AP [5] [%] | IC50 ([6]; Table 4, dilution 1:500) [nM] | IC50 ([6]; Table 5) [nM] | Inhibition percent at IC50AbGM1-1: GM1/AbGM1-1 ([6]; Table 5, lot # 431A) | Inhibition percent at IC50 AbGM1-1: AbGM1-3 ([6]; dilution 1:500) | Inhibition percent at IC50 AbGM1-1: AbeGM1-4 ([6]; dilution 1:500) | Inhibition percent at IC50 AbGM1-1: AbGM1-5 [6, 14] [%] | Inhibition percent at IC50 AbGM1-1: AbGM1-1 ([6]; dilution 1:500) | Inhibition percent at IC50 AbGM1-1: AbGM1-2 [6, 15] [%] | Inhibition percent at IC50AbGM1-1: GM2/AbGM2 [7] [%] | Inhibition percent at IC50AbGM1-1: GM4/AbGM4 [8] [%] | Inhibition percent at IC50AbGM1-1: GD1a/AbGD1a [9] [%] | Inhibition percent at IC50AbGM1-1: GD1b/AbGD1b [10] [%] | Inhibition percent at IC50AbGM1-1: GD3/AbGD3 [11] [%] | Inhibition percent at IC50AbGM1-1: F-GM1/AbF-GM1 [12] [%] | Inhibition percent at IC50AbGM1-1: SGPG/AbSGPG [13] [%] | further results
1 | CC(C)C[C@H](NC(=O)[C@H](CC(N)=O)NC(=O)[C@@H]1CCCN1C(=O)[C@H](Cc1ccccc1)NC(=O)[C@H](Cc1c[nH]c2ccccc12)NC(=O)[C@@H](NC(=O)[C@H](CCCCN)NC(=O)[C@H](Cc1c[nH]c2ccccc12)NC(=O)[C@H](CO)NC(=O)[C@@H](N)C(C)C)[C@@H](C)O)C(=O)N[C@@H](C)C(=O)N[C@H](C(=O)O)C(C)C [PGM1-1, VSWKTWFPNLAV] (H-VSWKTWFPNLAV-OH; N-terminus and C-terminus assumed) | 38.0 | 45.8 | 50.8 | 39.9 | 0 | 273 | 273 | 50^b percent | 0% | 72.1% | 44.6 | 50^a percent | 27.1 | 11.2 | 0 | 0 | 32.1 | 0 | 42.1 | 0 | 
2 | CSCC[C@H](NC(=O)[C@H](CO)NC(=O)[C@@H]1CCCN1C(=O)[C@H](Cc1ccccc1)NC(=O)[C@H](Cc1c[nH]c2ccccc12)NC(=O)[C@H](CCCCN)NC(=O)[C@H](Cc1c[nH]cn1)NC(=O)[C@H](Cc1ccccc1)NC(=O)[C@@H]1CCCN1C(=O)[C@H](CO)NC(=O)[C@@H](N)Cc1ccc(O)cc1)C(=O)N[C@@H](Cc1c[nH]cn1)C(=O)O [PGM1-2, YSPFHKWFPSMH] (H-YSPFHKWFPSMH-OH; N-terminus and C-terminus assumed) | 46.1 | 52.1 | 47.9 | 21.9 | 0 |  |  |  | 65.7^a percent | 15.1^a percent |  | 0^a percent |  |  |  |  |  |  |  |  | Inhibition percent at IC50 GM1: GM1 [1]: 50%; Inhibition percent: GM1/AbGM1-1 ([6]; Table 5, treatment with 500 pmol/mL of PGM1-2, lot # 431A): 0^b percent; Inhibition percent: AbGM1-5 ([6]; treatment with 500 pmol/mL of PGM1-2, antibody lot # 105T, dilution 1:500): 0^b percent; Inhibition percent: AbGM1-2 ([6]; treatment with 500 pmol/mL of PGM1-2, antibody lot # 431B, dilution 1:500): 32.1^b percent; Inhibition percent: GM2/AbGM2 [7, 16]: 0^b percent; Inhibition percent: GM4/AbGM4 [8, 16]: 0^b percent; Inhibition percent: GD1a/AbGD1a [9, 16]: 0^b percent; Inhibition percent: GD1b/AbGD1b [10, 16]: 23.6^b percent; Inhibition percent: F-GM1/AbF-GM1 [12, 16]: 0^b percent; Inhibition percent: SGPG/AbSGPG [13, 16]: 0^b percent
3 | CC[C@H](C)[C@H](N)C(=O)N1CCC[C@H]1C(=O)N[C@@H](CCC(N)=O)C(=O)N[C@H](C(=O)N[C@@H](Cc1c[nH]c2ccccc12)C(=O)N[C@@H](CCCNC(=N)N)C(=O)N[C@@H](CC(=O)O)C(=O)N[C@@H](Cc1c[nH]c2ccccc12)C(=O)N[C@@H](Cc1ccccc1)C(=O)N[C@@H](CCCCN)C(=O)N[C@@H](CC(C)C)C(=O)N1CCC[C@H]1C(=O)O)C(C)C [PGM1-3, IPQVWRDWFKLP] (H-IPQVWRDWFKLP-OH) | 9.6 | 43.9 | 52.1 | 37.9 | 0 | 75.6 | 75.6 | 50% | 42.5% | 30.3% | 59.1 | 50% | 62.1 | 0 | 0 | 0 | 0 | 0 | 0 | 0 | Inhibition percent at IC50 GM1: GM1 [1]: 50%
